Data reported in ChEMBL document CHEMBL1135514, “Structure-based approach for binding site identification on AmpC beta-lactamase” (J Med Chem, 2002).

Target: Beta-lactamase (Escherichia coli K-12, UniProt P00811)
Experiment: Binding affinity towards AmpC beta-lactamase binding site from Escherichia coli

Sequence of Beta-lactamase (P00811 whole entry): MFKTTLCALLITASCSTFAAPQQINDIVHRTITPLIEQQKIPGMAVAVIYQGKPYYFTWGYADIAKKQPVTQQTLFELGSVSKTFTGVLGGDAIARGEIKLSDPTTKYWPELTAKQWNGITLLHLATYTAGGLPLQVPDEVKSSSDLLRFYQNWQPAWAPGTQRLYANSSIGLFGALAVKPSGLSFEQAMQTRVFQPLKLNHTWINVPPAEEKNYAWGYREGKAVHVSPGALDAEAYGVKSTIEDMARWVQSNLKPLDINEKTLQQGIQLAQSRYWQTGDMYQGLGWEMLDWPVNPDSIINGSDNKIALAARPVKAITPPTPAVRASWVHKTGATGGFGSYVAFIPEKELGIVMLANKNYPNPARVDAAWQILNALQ

Ki: 20 nM
Structure (SMILES): CC(C)(O/N=C(/C(=O)NCB(O)O)c1csc(N)n1)C(=O)O
